In ChEMBL document CHEMBL5370659 (J Med Chem, 2023):
Active and inactive are the calls of the source. The rule behind the calls is not given here.

How the values were obtained:
[1] = Drug uptake in CD-1 (ICR) mouse lung at 50 mg/kg measured 0.5 hrs by LC-MS/MS analysis; assay type: ADME, organism-based; conditions: read-out: Drug uptake
[2] = Cmax in Sprague-Dawley rat at 20 mg/kg, po measured upto 1440 mins by LC-MS/MS analysis; assay type: ADME, organism-based; design: time < 1440 min, dose 20 mg/kg, route po; conditions: in vivo
[3] = target: T1, Tryptophan 5-hydroxylase 2 (Homo sapiens, UniProt Q8IWU9); assay: Inhibition of recombinant MBP-tagged full length human THP2 using L-Trp as substrate assessed as formation of 5-HTP by measuring fluorescent property
T1 sequence (Q8IWU9 whole entry): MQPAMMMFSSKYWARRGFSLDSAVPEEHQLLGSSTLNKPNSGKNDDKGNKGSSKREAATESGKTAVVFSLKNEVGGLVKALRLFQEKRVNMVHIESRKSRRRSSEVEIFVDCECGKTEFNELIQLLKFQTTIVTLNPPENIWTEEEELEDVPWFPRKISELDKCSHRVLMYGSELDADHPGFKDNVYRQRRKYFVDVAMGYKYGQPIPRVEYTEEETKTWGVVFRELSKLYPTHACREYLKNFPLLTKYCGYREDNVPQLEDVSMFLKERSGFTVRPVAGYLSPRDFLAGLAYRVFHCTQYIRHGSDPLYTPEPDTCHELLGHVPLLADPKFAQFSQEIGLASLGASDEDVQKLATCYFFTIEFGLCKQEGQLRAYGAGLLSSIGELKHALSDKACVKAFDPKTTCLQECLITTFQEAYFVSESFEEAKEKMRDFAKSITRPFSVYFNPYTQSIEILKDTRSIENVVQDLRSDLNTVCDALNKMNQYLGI

[4] = AUC (0 to infinitive) in Sprague-Dawley rat at 50 mg/kg, po measured upto 1440 mins by LC-MS/MS analysis; assay type: ADME, organism-based; design: dose 50 mg/kg, time < 1440 min, route po; conditions: in vivo
[5] = Metabolic stability in human hepatocytes assessed as half life; assay type: ADME, cell-based, Hepatocyte
[6] = Substrate activity at BCRP in human Caco-2 cells seeded in polyethylene membranes at 2 uM in presence or absence of E3S incubated for 2 hrs by LC-MS/MS analysis based substrate identification assay; assay type: ADME, cell-based; conditions: caco-2, 2 h
[7] = MRT (0 to last) in CD-1 (ICR) mouse at 50 mg/kg, po measured upto 1440 mins by LC-MS/MS analysis; assay type: ADME, organism-based; conditions: in vivo
[8] = Reduction in serotonin level in C57BL/6N mouse duodenum at 1.5 mg/kg, po bid treated for 7 days by HPLC analysis relative to control; assay type: functional; conditions: 168 h, time 7 day
[9] = Drug uptake in CD-1 (ICR) mouse brain at 50 mg/kg measured 0.5 hrs by LC-MS/MS analysis; assay type: ADME, organism-based; conditions: read-out: Drug uptake
[10] = Plasma concentration in Sprague-Dawley rat at 20 mg/kg, po measured at 0.5 hrs by LC-MS/MS analysis; assay type: ADME, organism-based
[11] = Toxicity in C57BL/6N mouse assessed as general toxic effects at 1.5 to 15 mg/kg, po bid treated for 7 days; assay type: organism-based; conditions: in vivo, 168 h, dose 1.5-15 mg/kg, time 7 day
[12] = AUC (0 to infinitive) in Sprague-Dawley rat at 20 mg/kg, po measured upto 1440 mins by LC-MS/MS analysis; assay type: ADME, organism-based; design: dose 20 mg/kg, time < 1440 min, route po; conditions: in vivo
[13] = Drug uptake in Sprague-Dawley rat lung at 50 mg/kg, po measured at 2 hrs by LC-MS/MS analysis; assay type: ADME, organism-based; conditions: read-out: Drug uptake
Mus musculus [14] = assay: Effect on total duration of immobility in C57BL/6N mouse at 50 mg/kg, po treated for 14 days by tail suspension test; assay type: functional, organism-based; conditions: time 14.0 day
[15] = Permeability across apical to basal side in MDCK-MDR1 cells at pH 6.5/7.4 measured at 5 uM by LC-MS/MS analysis; assay type: ADME, cell-based, Canis lupus familiaris; conditions: dog, MDCK-MDR1, pH 6.5
Mus musculus [16] = assay: Effect on time spent in central zone of C57BL/6N mouse at 20 mg/kg, po treated for 14 days by locomotor activity test; assay type: functional, organism-based; conditions: time 14.0 day
[17] = Half life in Sprague-Dawley rat at 50 mg/kg, po measured upto 1440 mins by LC-MS/MS analysis; assay type: ADME, organism-based; conditions: in vivo
[18] = Drug uptake in Sprague-Dawley rat lung at 20 mg/kg, po measured at 2 hrs by LC-MS/MS analysis; assay type: ADME, organism-based; conditions: read-out: Drug uptake
[19] = Drug uptake in Sprague-Dawley rat brain at 50 mg/kg, po measured at 2 hrs by LC-MS/MS analysis; assay type: ADME, organism-based; conditions: read-out: Drug uptake
[20] = Plasma concentration in CD-1 (ICR) mouse at 50 mg/kg measured 0.5 hrs by LC-MS/MS analysis; assay type: ADME, organism-based
[21] = Brain homogenate binding in rat; assay type: ADME, tissue-based
[22] = target: T2, Tryptophan 5-hydroxylase 1 (Homo sapiens, UniProt P17752); assay: Binding affinity to […] (unknown origin) assessed as equilibrium dissociation constant by surface plasmon resonance analysis
T2 sequence (P17752 whole entry): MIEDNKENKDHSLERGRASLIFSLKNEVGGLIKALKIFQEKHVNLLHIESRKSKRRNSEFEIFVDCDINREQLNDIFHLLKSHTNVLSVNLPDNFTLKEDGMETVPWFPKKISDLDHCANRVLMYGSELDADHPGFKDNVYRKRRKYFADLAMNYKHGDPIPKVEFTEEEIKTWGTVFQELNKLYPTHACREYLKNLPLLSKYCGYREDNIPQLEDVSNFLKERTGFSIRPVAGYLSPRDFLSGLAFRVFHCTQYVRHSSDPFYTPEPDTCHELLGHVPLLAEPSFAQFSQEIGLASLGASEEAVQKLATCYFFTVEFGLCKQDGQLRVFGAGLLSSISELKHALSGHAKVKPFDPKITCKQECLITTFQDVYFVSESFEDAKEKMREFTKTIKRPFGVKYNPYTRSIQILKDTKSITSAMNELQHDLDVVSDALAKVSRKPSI

[23] = AUCExtra in CD-1 (ICR) mouse at 50 mg/kg, po measured upto 1440 mins by LC-MS/MS analysis; assay type: ADME, organism-based; conditions: in vivo, 24 h
[24] = AUC (0 to last) in Sprague-Dawley rat at 50 mg/kg, po measured upto 1440 mins by LC-MS/MS analysis; assay type: ADME, organism-based; design: dose 50 mg/kg, time < 1440 min, route po; conditions: in vivo
[25] = Tlast in Sprague-Dawley rat at 20 mg/kg, po measured upto 1440 mins by LC-MS/MS analysis; assay type: ADME, organism-based; conditions: in vivo, 24 h
[26] = Plasma concentration in Sprague-Dawley rat at 20 mg/kg, po measured at 2 hrs by LC-MS/MS analysis; assay type: ADME, organism-based
[27] = Metabolic stability in rat hepatocytes assessed as half life; assay type: ADME, cell-based, Hepatocyte
[28] = Drug uptake in Sprague-Dawley rat brain at 20 mg/kg, po measured at 2 hrs by LC-MS/MS analysis; assay type: ADME, organism-based; conditions: in vivo, BLD = below limit of detection
MC-38 = assay: Antitumor activity against mouse MC-38 cells subcutaneously transplanted in C57BL/6N mouse assessed as reduction in absolute tumor volume at 50 mg/kg, po bid measured on day 13 relative to control; assay type: functional; conditions: MC-38, 312 h, route sc, time 13 day
Mus musculus [29] = assay: Effect on hedonic component behavior in C57BL/6N mouse at 50 mg/kg, po treated for 14 days by sucrose preference test; assay type: functional, organism-based; conditions: time 14.0 day

concentration at 0.5 h [1]: 1720 ng/g | Cmax [2]: 2090 ng/mL | IC50 [3]: 16 nM | AUC(0-inf) [4]: 8220 ng·h/mL | half-life [5]: > 2.42 h | Activity [6]: Not Active | MRT last at 24 h [7]: 1.58 h | concentration at 0.5 h [9]: 53 ng/g | concentration at 0.5 h [10]: 1420 ng/mL | AUC(0-inf) [12]: 3320 ng·h/mL | concentration at 2 h [13]: 391 ng/g | Papp A→B at 5 µM [15]: < 0.54 ×10⁻⁶ cm/s | half-life [17]: 3.41 h | concentration at 2 h [18]: 76 ng/g | concentration at 2 h [19]: 18 ng/g | concentration at 0.5 h [20]: 7390 ng/mL | Activity [21]: 70% | Kd [22]: 3.2 nM | %AUCextra [23]: 0.552% | AUC(0-t) at 24 h [24]: 8180 ng·h/mL | Tlast [25]: 24 h | concentration at 2 h [26]: 196 ng/mL | half-life [27]: > 2.42 h | Drug uptake [28]: Bld
Structure (SMILES): CCn1c(=O)[nH]c(=O)c2c1nc(Cc1cn3cc(C)sc3n1)n2CC1COC1
inhibition in vivo at 1.5 mg/kg [8]: 40% | Activity [11]: Non-Toxic | Activity (Mus musculus [14]): inactive | Activity (Mus musculus [16]): inactive | inhibition in vivo at 50 mg/kg (MC-38): 50% | Activity (Mus musculus [29]): inactive
